Here are results for twelve compounds from US10206909B2, “3-(1H-pyrrolo[2,3-B]pyridin-2-yl)-1H-pyrazolo[4,3-B]pyridines and therapeutic uses thereof” (Samumed, LLC, priority 2015, dated 2019).

As usually defined, the inhibition is the percentage by which the read-out fell short of the control.

Molecules are shown by their SMILES.

What all share (assay type): cell-based
The test system of assay [1] is IL-6 (THP-1 cells). The experiment in a line: IL-6 inhibition in LPS-stimulated THP-1 cells (HTRF). The following applies: Homo sapiens; for EC50: THP-1 cells, LPS 500 ng/mL, 22 hours, IL6 HTRF; for inhibition at 10 µM: given where EC50 >10 μM, THP-1, IL6, read-out: percent inhibition at 10 μM. As for the experimental part: Human Monocyte Cell Culture: Human monocyte cell line (THP-1 cells; Catalog # TIB-202, ATCC, Manassas, Va.) were cultured in Roswell Park Memorial Institute (RPMI) 1640 Medium (Catalog #21870-100, Buffalo, N.Y.) with 1% L-glutamine, 1% HEPES, 1% Sodium Pyruvate, 2% Sodium Bicarbonate supplemented with 100 units/mL penicillin, 50 μg/mL streptomycin, 2-mercaptoethanol (0.05 mM) [basal medium] and 10% fetal bovine serum (Catalog #16140089, Life Technologies, Carlsbad, Calif.) at 37° C. and 5% CO2.
Compound Screening: THP-1 cells were cultured in basal media with 1% FBS for 24 hours before the start of the assay. Each compound was dissolved in DMSO as a 10 mM stock and used to prepare compound source plates. Serial dilution (1:3, 10-point dose-response curves starting from 10 μM) and compound transfer was performed using the ECHO 550 (Labcyte, Sunnyvale, Calif.) into 384-well white low volume assay plates (Greiner Bio-One) with appropriate DMSO backfill for a final DMSO concentration of 0.1%. THP-1 cells were plated at 5000 cells/well in the 384-well plates and incubated at 37° C. for 2 h. 500 ng/mL of LPS was added after 2 hours and cells were incubated for another 22 hours at 37° C. Plates were spun in a centrifuge for 1 minute at […] and a mixture of anti-IL6 XL665, and anti-IL6 Cryptate diluted in reconstitution buffer (Cisbio Inc.) was added to each well. Following incubation for 3 hrs at room temperature, Homogeneous Time-Resolved Fluorescence (HTRF) was measured using the Envision (Perkin Elmer) at 665 nm and […]. The ratio of fluorescence at 665 nm to 620 nm was used as a readout for IL6 quantification. All samples were processed in duplicate. Readings were normalized to DMSO treated cells and normalized activities were utilized for EC50 calculations using the dose-response log (inhibitor) vs. response —variable slope (four parameters) nonlinear regression feature available in GraphPad Prism 5.0 (or Dotmatics). For EC50 of >10 μM, the percent inhibition at 10 μM is provided.
Background: In TR-FRET formats the signal depends on donor and acceptor labels being close together.

Assay [2] deals with SW480 colon cancer cells. The experiment in a line: Cell viability assay (CellTiter-Blue). The conditions noted are these: Homo sapiens; for EC50: 96 h, SW480 cell viability, four days, CellTiter-Blue; for inhibition at 10 µM: given where EC50 >10 μM, SW480 viability, read-out: percent inhibition at 10 μM. As for the experimental part:
Representative compounds were screened using the following assay procedure to assess the effect on cell viability as described below.
Each compound was dissolved in DMSO as a 10 mM stock and used to prepare compound source plates. Serial dilution (1:3, 8-point dose-response curves from 10 μM to 0.0045 μM) and compound transfer was performed using the ECHO 550 (Labcyte, Sunnyvale, Calif.) into 96-well clear bottom, black-walled plates (Corning-Costar).
Approximately 2×10^3 SW480 colon cancer cells were seeded into each well and allowed to incubate in the presence or absence of compound for four days at 37° C./5% CO2. Eight replicates of DMSO-treated cells served as controls and cells treated with compound were performed in duplicate.
After incubation, 20 μL of CellTiter-Blue (Promega) was added to each well allowed to incubate for approximately 3 hours. This reagent was a buffered solution which contains resazurin, metabolically active cells were able to reduce rezarurin (blue) into resorufin (pink) which was highly fluorescent. This measured fluorescence was used as a readout for cell viability.
After incubation, the plates were read at Ex 560 nm Em 590 nm (Cytation 3, BioTek). Dose-response curves were generated and EC50 concentration values were calculated using non-linear regression curve fit in the GraphPad Prism (San Diego, Calif.) or Dotmatics' Studies Software (Bishops Stortford, UK). For EC50 of >10 μM, the percent inhibition at 10 μM is provided.

Assay [3] relates to primary human mesenchymal stem cells (hMSCs). Description: Chondrogenesis induction in mesenchymal stem cells (nodule count). The conditions noted are these: 144 h, 6 days; for EC50: concentration required to induce 50% levels of chondrogenesis vs TGF-β3, read-out: Conc (nM) of 50% TGF-β3 activity; for Emax: relative to TGF-β3 (10 ng/mL) positive control, read-out: Max. Activity as % TGF-β3 activity. As for the experimental part: Representative compounds were screened using primary human mesenchymal stem cells (hMSCs) to determine their ability to induce chondrogenesis (process by which cartilage is developed).
Human Mesenchymal Stem Cell Culture: Primary human mesenchymal stem cells (hMSCs) were purchased from Lonza (Walkersville, Md.) and expanded in Mesenchymal Stem Cell Growth Media (Lonza). Cells between passage 3 and 6 were used for the experiments.
Compound Screening: Each compound was dissolved in DMSO as a 10 mM stock and used to prepare compound source plates. Serial dilution (1:3, 6-point dose-response curves from 2700 nM to 10 nM) and compound transfer was performed using the ECHO 550 (Labcyte, Sunnyvale, Calif.) into 96-well clear bottom assay plates (Greiner Bio-One) with appropriate DMSO backfill for a final DMSO concentration of 0.03%. hMSCs were plated at 20,000 cells/well in 250 μL/well Incomplete Chondrogenic Induction Medium (Lonza; DMEM, dexamethasone, ascorbate, insulin-transferrin-selenium [ITS supplement], gentamycin-amphotericin [GA-1000], sodium pyruvate, proline and L-glutamine). TGF-β3 (10 ng/mL) was used as a positive control for differentiation while negative control wells were treated with 75 nL DMSO for normalization and calculating EC50 values. Cells were incubated at 37° C. and 5% CO2 for 6 days. To image chondrogenic nodules, the cells were fixed using 4% formaldehyde (Electron Microscopy Sciences), and stained with 2 μg/mL Rhodamine B (Sigma-Aldrich) and 20 μM Nile Red (Sigma-Aldrich) [Johnson K., et. al, A Stem Cell-Based Approach to Cartilage Repair, Science, (2012). 336(6082), 717-721]. The nodules imaged (4 images per well at 4× magnification) by excitation at 531 nm and emission at 625 nm and quantified using the CellInsight CX5 (Thermo Scientific). Number of nodules in each well was normalized to the average of 3 DMSO treated wells on the same plate using Excel (Microsoft Inc.). The normalized averages (fold change over DMSO) of 3 replicate wells for each compound concentration were calculated. Due to solubility limitations of some of the compounds, curve fitting was incomplete leading to inaccurate EC50 determinations.
Using TGF-β3 as a positive control, the concentration of representative compounds required to induce 50% levels of chondrogenesis is reported. In addition, the maximum activity of each compound and the respective dose that each compound reached maximum chondrogenesis activity is reported.

`Fc1cccc(-c2ccnc3[nH]c(-c4n[nH]c5ccc(-c6cncc(CN7CCCCC7)c6)nc45)cc23)c1` [Compound 15, 3-(4-(3-Fluorophenyl)-1H-pyrrolo[2,3-b]pyridin-2-yl)-5-(5-(piperidin-1-ylmethyl)pyridin-3-yl)-1H-pyrazolo[4,3-b]pyridine]: the EC50 was greater than 10 µM in assay [1], greater than 10 µM in assay [2] and 900 nM in assay [3]. For the same compound, the values for the inhibition at 10 µM in assay [1] and in assay [2] were 41% and 29.9%, respectively. Besides, the Emax in assay [3] turned out to be 62%.
On to `CN(C)Cc1cncc(-c2ccc3[nH]nc(-c4cc5c(-c6ccccc6F)ccnc5[nH]4)c3n2)c1` [Compound 69, 1-(5-(3-(4-(2-Fluorophenyl)-1H-pyrrolo[2,3-b]pyridin-2-yl)-1H-pyrazolo [4,3-b]pyridin-5-yl)pyridin-3-yl)-N,N-dimethylmethanamine], for which, in assay [1], the EC50 was found to be 1.08 µM. In assay [2], the EC50 is greater than 10 µM and the inhibition at 10 µM came out at 33.5%. The Emax in assay [3] came out at 44%.
For `c1cncc(-c2ccc3[nH]nc(-c4cc5c(-c6cccnc6)ccnc5[nH]4)c3n2)c1` [Compound 88, 5-(Pyridin-3-yl)-3-(4-(pyridin-3-yl)-1H-pyrrolo[2,3-b]pyridin-2-yl)-1H-pyrazolo[4,3-b]pyridine], the results for the EC50 in assay [1], in assay [2] and in assay [3] were greater than 10 µM, greater than 10 µM and 100 nM, respectively. Besides, the inhibition at 10 µM in assay [1] was 38.7%; in assay [2], 31.2%. For the same compound, the Emax in assay [3] is 59%.
`CN(C)c1cncc(-c2ccc3[nH]nc(-c4cc5c(-c6cccnc6)ccnc5[nH]4)c3n2)c1` [Compound 91, N,N-Dimethyl-5-(3-(4-(pyridin-3-yl)-1H-pyrrolo[2,3-b]pyridin-2-yl)-1H-pyrazolo[4,3-b]pyridin-5-yl)pyridin-3-amine]: in assay [1], the EC50 is greater than 10 µM and the inhibition at 10 µM was 36.3%. Further, in assay [2], the EC50 was greater than 10 µM and the inhibition at 10 µM is 3.5%. Moreover, in assay [3], the EC50 is 30 nM and the Emax was found to be 71%.
In assay [1], `CC(C)Nc1cncc(-c2ccc3[nH]nc(-c4cc5c(-c6cccnc6)ccnc5[nH]4)c3n2)c1` [Compound 96, N-Isopropyl-5-(3-(4-(pyridin-3-yl)-1H-pyrrolo[2,3-b]pyridin-2-yl)-1H-pyrazolo[4,3-b]pyridin-5-yl)pyridin-3-amine] yielded an EC50 of 0.008 µM. For the same compound, in assay [2], the EC50 was greater than 10 µM and the inhibition at 10 µM came to 0%. In assay [3], the Emax was determined as 47%.
Consider `FC1(F)CCN(Cc2cncc(-c3ccc4[nH]nc(-c5cc6c(-c7cccnc7)ccnc6[nH]5)c4n3)c2)C1` [Compound 110, 5-(5-((3,3-Difluoropyrrolidin-1-yl)methyl)pyridin-3-yl)-3-(4-(pyridin-3-yl)-1H-pyrrolo[2,3-b]pyridin-2-yl)-1H-pyrazolo[4,3-b]pyridine], for which the EC50 in assay [1] worked out at 4.93 µM. Further, in assay [2], the EC50 is greater than 10 µM and the inhibition at 10 µM stood at 12.3%. Further, in assay [3], the EC50 amounted to 300 nM and the Emax was found to be 80%.
Turning to `c1csc(-c2ccnc3[nH]c(-c4n[nH]c5ccc(-c6cncnc6)nc45)cc23)c1` [Compound 363, 5-(Pyrimidin-5-yl)-3-(4-(thiophen-2-yl)-1H-pyrrolo[2,3-b]pyridin-2-yl)-1H-pyrazolo[4,3-b]pyridine], in assay [1], the EC50 is greater than 10 µM and the inhibition at 10 µM was found to be 36.3%. For the same compound, in assay [2], the EC50 is greater than 10 µM and the inhibition at 10 µM is 29.3%.
Regarding `Fc1cccc(-c2ccnc3[nH]c(-c4n[nH]c5ccc(-c6cncc(OCc7ccccc7)c6)nc45)cc23)c1` [Compound 518, 5-(5-(Benzyloxy)pyridin-3-yl)-3-(4-(3-fluorophenyl)-1H-pyrrolo[2,3-b]pyridin-2-yl)-1H-pyrazolo[4,3-b]pyridine], in assay [1], the EC50 is greater than 10 µM and the inhibition at 10 µM was found to be 9.6%. Moreover, in assay [2], the EC50 is greater than 10 µM and the inhibition at 10 µM turned out to be 17.3%.
On to `Oc1cncc(-c2ccc3[nH]nc(-c4cc5c(-c6ccc(F)cc6)ccnc5[nH]4)c3n2)c1` [Compound 533, 5-(3-(4-(4-Fluorophenyl)-1H-pyrrolo[2,3-b]pyridin-2-yl)-1H-pyrazolo[4,3-b]pyridin-5-yl)pyridin-3-ol], for which the EC50 in assay [1] and in assay [2] was greater than 10 µM in each case. In addition, the inhibition at 10 µM in assay [1] was found to be 37.1%; in assay [2] it was 15.4%.
In assay [1], `c1cc(N2CCCCC2)c2cc(-c3n[nH]c4ccc(C5CCNCC5)nc34)[nH]c2n1` [Compound 601, 3-(4-(Piperidin-1-yl)-1H-pyrrolo[2,3-b]pyridin-2-yl)-5-(piperidin-4-yl)-1H-pyrazolo[4,3-b]pyridine] yielded an EC50 of 3.5 µM. Also, in assay [2], the EC50 was greater than 10 µM and the inhibition at 10 µM was determined as 40.7%.
Take `Cn1cc(-c2ccc3[nH]nc(-c4cc5cccnc5[nH]4)c3n2)cn1` [Compound 652, 5-(1-Methyl-1H-pyrazol-4-yl)-3-(1H-pyrrolo[2,3-b]pyridin-2-yl)-1H-pyrazolo[4,3-b]pyridine]: the EC50 in assay [1] stood at 0.046 µM. Also, in assay [2], the EC50 was greater than 10 µM and the inhibition at 10 µM is 29.2%.
In the same order, the values of `c1csc(-c2ccnc3[nH]c(-c4n[nH]c5ccc(-c6cncc(OC7CCCCC7)c6)nc45)cc23)c1` [Compound 703, 5-(5-(Cyclohexyloxy)pyridin-3-yl)-3-(4-(thiophen-2-yl)-1H-pyrrolo[2,3-b]pyridin-2-yl)-1H-pyrazolo[4,3-b]pyridine] are 0.303 µM, greater than 10 µM and 52.9%.
